Measured values from US20250177394A1, “COMBINATIONS OF CTPS1 AND BCL2 INHIBITORS FOR CANCER” (Step Pharma S.A.S., priority 2022, published 2025).

What was measured:
human CTPS1 = human CTPS1 (Homo sapiens (Human), UniProt P17812); experiment: Human CTPS1 enzyme inhibition, ADP-Glo Max assay; format: biochemical; conditions: Human CTPS1 Enzyme Inhibition data
Description: The enzyme inhibitory activities of compounds CTPS1-IA and CTPS1-IB against CTPS1 were determined using the ADP-Glo™ Max assay (Promega, UK).
Assays for human CTPS1 were performed in 1× assay buffer containing 50 mM Tris, 10 mM MgCl2, 0.01% Tween-20, pH to 8.0 accordingly. Finally, immediately before use, L-cysteine was added to the 1× assay buffer to a final concentration of 2 mM. All reagents are from Sigma-Aldrich unless specified otherwise. Human full length active C-terminal FLAG-His8-tag CTPS1 (UniProtKB—P17812, CTPS[1-591]-[…], SEQ ID NO: 1) was obtained from Proteros biostructures GmbH.
3× human CTPS1 protein was prepared in 1× assay buffer to the final working protein concentration required for the reaction. […] The enzymatic reaction was then initiated by addition of a 2 uL per well volume of a pre-mixed substrate mix (UltraPure ATP from ADP-Glo™ Max kit (0.31 mM), GTP (0.034 mM), UTP (0.48 mM) and L-glutamine (0.186 mM)) and the mixture was incubated for an appropriate amount of time within the determined linear phase of the reaction at 25° C. under sealed plate conditions with constant agitation at 500 revolutions per minute (rpm). ADP-Glo™ Max reagent was added for 60 minutes (6 μL per well) and subsequently ADP-Go™ Max development reagent was added for 60 minutes (12 uL per well) prior to signal detection in a microplate reader (EnVision® Multilabel Reader, Perkin Elmer). […]

human CTPS1 versus CTPS2 = experiment: Human CTPS1 versus CTPS2 selectivity assessment by RapidFire/MS; format: biochemical; conditions: fold selectivity between CTPS1 and CTPS2
Description: The enzyme inhibitory activities against each target isoform of interest were determined for compounds using an optimised RapidFire high-throughput mass spectrometry (RF/MS) assay format. RF/MS assays for both human CTPS1 and CTPS2 were performed in assay buffer consisting of 50 mM HEPES (Merck), 20 mM MgCl2, 5 mM KCl, 1 mM DTT, 0.01% Tween-20, pH to 8.0 accordingly. Human full-length active C-terminal FLAG-His-tag CTPS1 (UniProtKB—P17812, CTPS[1-591]-[…], SEQ ID NO: 1) was obtained from Proteros biostructures GmbH. Human full length active C-terminal FLAG-His-Avi tagged CTPS2 (UniProtKB—Q9NRF8, CTPS2 [1-586]-[…], SEQ ID NO: 2) was obtained from Harker Bio.
Human CTPS (1 or 2) protein was prepared in 1× assay buffer to the final working protein concentration required for the reaction. A 2 uL volume per well of 2×CTPS (1 or 2) protein was mixed with 40 nL of compound using acoustic (ECHO) delivery and incubated for 10 minutes at 25° C. […] Each mixture was incubated for an appropriate amount of time per isoform within the determined linear phase of the reaction at 25° C. […]
In all cases, the enzyme converts UTP to CTP. […] Readout for data analysis was calculated as the ratio between the peak area of the product CTP and the internal standard ^13C9-^15N3-CTP. […]
Fold selectivity between CTPS1 and CTPS2 was subsequently calculated according to the following equation: […]

[1] = system: human mantle cell lymphoma cell line; experiment: Western blot after exposure to CTPS1 inhibitor; format: cell-based; conditions: 24 hour exposure versus control; GAPDH loading control
Description: Cells were incubated on ice for 40 minutes with lysis buffer then centrifuged at 11000 rpm for 30′. Total protein extracts were collected from supernatants and protein concentrations determined using a colorimetric assay. 30 μg of proteins were separated by SDS-PAGE using precast gels and transferred to membranes using the Trans-Blot Turbo system. Membranes were blocked for 1 hour in a 5% dry milk, TBS-Tween20 solution and incubated with primary antibodies overnight at 4° C. Membranes were incubated for at least 1 hour with secondary antibodies, either goat anti-mouse or goat anti-rabbit conjugated with peroxidase. Chemiluminescence was determined using the Clarity Western ECL Substrate on the Fusion FX imaging system.

[2] = system: human mantle cell lymphoma cell lines; experiment: RNA sequencing after exposure to CTPS1 inhibitor; format: cell-based; conditions: 24 hour exposure at IC50 versus control
Description: RNA was obtained from cancer cell lines treated with CTPS1-IA at IC50 or control for 24 hours. Libraries were prepared from 10 ng total RNA. mRNA poly(A) tails were tagged with universal adapters, sample-specific barcodes and unique molecular identifiers using template switching reverse transcriptase. Barcoded cDNAs from multiple samples were then pooled, amplified and tagmented using a transposon-fragmentation approach which enriches for 3′ ends of cDNA. A library of 350-800 bp length was run on an Illumina NovaSeq 6000 using NovaSeq 6000 SP Reagent Kit 100 cycles (ref #20027464). Raw fastq pairs used for analysis matched the following criteria: the 16 bases of the first read correspond to 6 bases for a sample-specific barcode and 10 bases for a unique molecular identifier. The second read (58 bases) corresponds to the captured poly(A) RNAs sequence. Demultiplexing of these fastq pairs was performed to generate one single-end fastq for each of the 96 samples. fastq files were then aligned with bwa to reference mRNA sequences and the mitochondrial genomic sequence (UCSC). DGE profiles were generated by parsing the alignment files (.bam) and counting for each sample the number of unique molecular identifiers associated with each RefSeq gene. Reads aligned on multiple genes, containing more than one mismatch with the reference sequence, or containing a polyA pattern were discarded. […]

Chain of human CTPS1 (P17812 whole entry): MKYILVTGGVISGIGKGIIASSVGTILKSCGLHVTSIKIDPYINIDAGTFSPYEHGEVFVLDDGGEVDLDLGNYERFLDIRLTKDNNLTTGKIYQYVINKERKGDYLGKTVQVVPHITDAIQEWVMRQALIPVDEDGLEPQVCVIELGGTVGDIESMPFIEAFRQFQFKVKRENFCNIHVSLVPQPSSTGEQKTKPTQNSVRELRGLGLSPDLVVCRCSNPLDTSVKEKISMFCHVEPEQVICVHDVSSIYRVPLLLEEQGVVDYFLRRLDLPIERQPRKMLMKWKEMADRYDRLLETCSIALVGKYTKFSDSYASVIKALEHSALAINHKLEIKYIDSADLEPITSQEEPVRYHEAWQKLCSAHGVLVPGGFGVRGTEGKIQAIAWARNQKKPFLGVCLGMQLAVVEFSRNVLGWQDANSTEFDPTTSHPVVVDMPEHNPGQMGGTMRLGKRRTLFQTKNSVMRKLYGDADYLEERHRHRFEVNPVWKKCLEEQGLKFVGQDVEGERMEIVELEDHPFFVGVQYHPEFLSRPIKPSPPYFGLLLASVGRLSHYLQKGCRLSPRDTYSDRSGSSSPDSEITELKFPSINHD

IC50 (human CTPS1) [nM] | Structure (SMILES) | Selectivity (human CTPS1 versus CTPS2) [fold] | BCL2 protein [1] | MCL1 protein [1] | BCL2 transcripts [2] | MCL1 transcripts [2]
≤ 100 | CCOc1cncc(-c2ccc(NC(=O)C3(c4ccnc(NS(=O)(=O)CC)n4)CCOCC3)nc2)n1 [CTPS1-IB, N-(5-(6-ethoxypyrazin-2-yl)pyridin-2-yl)-4-(2-(ethylsulfonamido)pyrimidin-4-yl)tetrahydro-2H-pyran-4-carboxamide] | >60 | – | – | – | –
≤ 100 | CCOc1cncc(-c2ccc(NC(=O)C3(c4ccnc(NS(=O)(=O)C5CC5)n4)CCOCC3)nc2)n1 [CTPS1-IA, 4-(2-(cyclopropanesulfonamido)pyrimidin-4-yl)-N-(5-(6-ethoxypyrazin-2-yl)pyridin-2-yl)tetrahydro-2H-pyran-4-carboxamide] | >60 | increase | decrease | increase | decrease
